From patent US8975417B2, “Pyrazolopyrrolidine derivatives and their use in the treatment of disease” (Novartis AG, priority 2013, dated 2015) come the findings set out here.

Each structure is given as a SMILES string. A value given as a limit tells only on which side of the number the result lay.

The target of test [1] is His-Brd4(44-477) (Homo sapiens (Human), UniProt O60885). Kind of test: TR-FRET in-vitro binding assay for BRD4. As to conditions: biochemical. The essentials: (§1)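 Assay buffer HEPES pH 7.5/NaCl/Tween20/BSA; protein solution 45 nM, peptide solution 60 nM acetyl-H4 (AcK5,8,12,16). Incubated 30 °C for 35 min; Eu-anti-His6 and SA-APC detection, TR-FRET read.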
Test [2] has as its target His-Brd2(60-472) (Homo sapiens (Human), UniProt P25440). Kind of test: TR-FRET in-vitro binding assay for BRD2. As to conditions: biochemical. The essentials: as §1
On the technique in general: Time-resolved FRET reads energy transfer from a long-lived donor to a nearby acceptor.

In test [3] the target is His-Brd3(20-477) (Homo sapiens (Human), UniProt Q15059). As to the kind of experiment: TR-FRET in-vitro binding assay for BRD3. As to conditions: biochemical. The essentials:
as §1

Test [4] concerns MV-4-11 cells. As to the kind of experiment: Cell growth inhibition assay (CellTiter-Glo), MV-4-11. The test is classed as cell-based. The settings on record: Homo sapiens, MV4-11, read-out: MV-4-11 TGI. The protocol:
(§2) Cell Growth Inhibition Assay
(§3) The human leukemia cell lines MV-4-11, THP-1 and K-562 were employed to characterize the effect of BET inhibitors on cellular proliferation and viability. Cells were obtained from the American Type Culture Collection (ATCC) and cultured at 37° C. in a humidified 5% CO2 incubator in the following media: MV-4-11: DMEM high glucose (Animed #1-26F01-I), 10% FCS (Animed #2-01F26-I), 4 mM L-Glutamine (Animed #5-10K50), 1 mM Sodium Pyruvate (Animed # G03625P), 1× Penicillin-Streptomycin (Animed # F12478P); K-562: Iscove's MEM (Animed #1-28F16-I), 10% FCS (Animed #2-01F26-I), 4 mM L-Glutamine (Animed #5-10K50), 1× Penicillin-Streptomycin (Animed # F12478P); THP-1: RPMI-1640 (Animed #1-41F01-I), 10% FCS (Animed #2-01F26-I), 2 mM L-Glutamine (Animed #5-10K50), 10 mM HEPES (Animed #5-31F100), 1 mM Sodium Pyruvate (Animed # G03625P), 1× Penicillin-Streptomycin (Animed # F12478P). The AML lines MV-4-11 and THP-1 are very sensitive to BET inhibitors and show massive cell death upon BET inhibition (Zuber et al., Nature, 478 (2011), 524-8). Compound-mediated suppression of cell proliferation/viability was assessed by quantification of cellular ATP levels using the CellTiter-Glo (CTG) reagent (Promega). Briefly, cells were seeded in 20 μl fresh medium into 384-well plates, followed by addition of 5 μL medium containing compound dilutions at 5-fold their final intended concentration. Dose-response effects were assessed by 3-fold serial dilutions of the test compound, starting at 10 μM. Following incubation of the cells for days at 37° C. and 5% CO2, the effect of inhibitors on cell viability was quantified following addition of 20 μl CTG and luminescence quantification (integration time: 100 ms) as per vendor manual, using a correspondingly equipped Tecan M200 multi-mode platereader (TECAN, Switzerland). For data analysis, the assay background value determined in wells containing medium, but no cells, was subtracted from all data points. To enable differentiation of cytotoxic from cytostatic compounds, the number of viable cells is assessed relative to that observed at the time of compound addition using a separate cell plate (day 0). The effect of a particular test compound concentration on cell proliferation/viability is expressed as percentage of the background- and day 0-corrected luminescence reading obtained for cells treated with vehicle only (DMSO, 0.1% final concentration), which is set as 100%, whereas that luminescence reading for wells containing medium is set as −100%. Compound concentrations leading to half-maximal (IC50) and total growth inhibition (TGI) were determined using standard four parameter curve fitting.
On the technique in general: Cellular ATP, detected with luciferase, serves as a proxy for viable cell number.

The subject of test [5] is THP-1 cells. Kind of test: Cell growth inhibition assay (CellTiter-Glo), THP-1. The test is classed as cell-based. As to conditions: Homo sapiens, read-out: THP-1 TGI. The protocol:
as §2, §3

Test [6] deals with K-562 cells. Kind of test: Cell growth inhibition assay (CellTiter-Glo), K-562. The settings on record: Homo sapiens, K562, read-out: K-562 TGI. Format: cell-based, human. The protocol:
as §2, §3

The target in test [7] is His-CREBBP (1081-1197) bromodomain (Homo sapiens (Human), UniProt Q92793). As to the kind of experiment: AlphaScreen in-vitro binding assay for CREBBP. As to conditions: biochemical. The protocol: AlphaScreen In-Vitro Binding Assay for CREBBP
In order to assess bromodomain selectivity, we set up a binding assay using the bromodomain encoded by the CREBBP gene. […] Reactions were incubated at 30° C. for 35 minutes. Subsequently 4.5 μL per well detection mix (50 mM HEPES, pH 7.5, 0.005% Tween20, 0.02% BSA, 150 mM NaCl, 45 μg/ml Ni-chelate acceptor beads, 45 μg/mL streptavidin-donor beads) (Perkin Elmer)) were added. After 60 minutes incubation at room temperature, plates were measured in a Perkin Elmer EnVision multilabel reader. IC50 values were determined from percent inhibition values at different compound concentrations by non-linear regression analysis.
Test compounds were dissolved in DMSO (10 mM) and transferred into 1.4 mL flat bottom or V-shaped Matrix tubes carrying a unique 2D matrix. The stock solutions were stored at […] if not used immediately. For the test procedure the vials were defrosted and identified by a scanner whereby a working sheet was generated that guided the subsequent working steps. Compound dilutions were made in 96 well plates. This format enabled the assay of maximally […] at 8 concentrations (single points) including 4 reference compounds, if desired (known BET inhibitors from the prior art, for this and other assays of the type disclosed herein). The dilution protocol included the production of “pre-dilution plates”, “master plates” and “assay plates”.
Polypropylene 96-well plates were used as pre-dilution plates. […] All dilution steps were done on a HamiltonSTAR robot.
These plates were used directly for the assay which was performed in a total volume of 13.55 μL.
In general terms: Alpha assays give light when donor and acceptor beads are brought close together.

Chain of His-CREBBP (1081-1197) bromodomain (Q92793 1081-1197): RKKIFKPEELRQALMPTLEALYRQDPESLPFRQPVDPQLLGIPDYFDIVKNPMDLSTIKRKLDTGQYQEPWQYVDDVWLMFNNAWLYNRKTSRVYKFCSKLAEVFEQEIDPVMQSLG
Chain of His-Brd3(20-477) (Q15059 20-477): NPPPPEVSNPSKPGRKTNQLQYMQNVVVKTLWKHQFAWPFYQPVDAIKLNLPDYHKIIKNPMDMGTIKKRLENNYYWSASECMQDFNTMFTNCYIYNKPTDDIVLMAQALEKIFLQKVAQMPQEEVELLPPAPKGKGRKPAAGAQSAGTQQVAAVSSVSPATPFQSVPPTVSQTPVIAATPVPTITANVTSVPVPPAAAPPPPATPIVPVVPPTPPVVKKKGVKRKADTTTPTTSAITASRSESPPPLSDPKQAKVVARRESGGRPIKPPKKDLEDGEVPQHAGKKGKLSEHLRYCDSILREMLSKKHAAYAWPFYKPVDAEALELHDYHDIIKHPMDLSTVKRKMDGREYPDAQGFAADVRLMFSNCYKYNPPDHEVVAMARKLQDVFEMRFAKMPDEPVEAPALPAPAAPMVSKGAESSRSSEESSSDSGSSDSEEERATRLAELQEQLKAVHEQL
Chain of His-Brd2(60-472) (P25440 60-472): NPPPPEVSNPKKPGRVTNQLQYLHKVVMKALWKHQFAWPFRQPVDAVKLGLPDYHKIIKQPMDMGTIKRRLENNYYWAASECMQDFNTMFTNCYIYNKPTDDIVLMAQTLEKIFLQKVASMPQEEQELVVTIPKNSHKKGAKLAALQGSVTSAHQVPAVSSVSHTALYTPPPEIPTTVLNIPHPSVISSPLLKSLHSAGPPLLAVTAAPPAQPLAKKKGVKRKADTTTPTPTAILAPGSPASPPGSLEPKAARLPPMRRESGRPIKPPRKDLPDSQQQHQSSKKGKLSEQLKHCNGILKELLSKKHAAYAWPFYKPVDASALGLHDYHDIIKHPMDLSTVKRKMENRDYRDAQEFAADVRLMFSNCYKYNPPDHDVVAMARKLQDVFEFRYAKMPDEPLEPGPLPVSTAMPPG

Regarding `Cc1c2c(nn1C)C(=O)N(c1cc(Cl)c(=O)n(C)c1)[C@@H]2c1ccc(Cl)cc1` [Example 7, (R)-5-(5-chloro-1-methyl-6-oxo-1,6-dihydropyridin-3-yl)-4-(4-chlorophenyl)-2,3-dimethyl-4,5-dihydropyrrolo[3,4-c]pyrazol-6(2H)-one], the IC50 (as a rule, the concentration that inhibits the measured activity by half) was found to be 72 nM in test [1], 100 nM in test [2] and 67 nM in test [3]. The IC (total growth inhibition) is 0.107 µM in test [4], 0.191 µM in test [5] and above 10 µM in test [6].
In the case of `Cc1cc(N2C(=O)c3nn(C)cc3[C@H]2c2ccc(Cl)cc2)cn(C)c1=O` [Example 16, (R)-4-(4-chlorophenyl)-5-(1,5-dimethyl-6-oxo-1,6-dihydropyridin-3-yl)-2-methyl-4,5-dihydropyrrolo[3,4-c]pyrazol-6(2H)-one], the figures for the IC50 in test [1], in test [2] and in test [3] were 81 nM, 100 nM and 66 nM, respectively. In addition, the IC (total growth inhibition) in test [4] is 0.116 µM; in test [5], 0.207 µM; in test [6], above 10 µM.
With `Cc1c2c(nn1C1CC1)C(=O)N(c1cc(Cl)c(=O)n(C)c1)[C@H]2c1ccc(Cl)cc1` [Example 18, (S)-5-(5-chloro-1-methyl-6-oxo-1,6-dihydropyridin-3-yl)-4-(4-chlorophenyl)-2-cyclopropyl-3-methyl-4,5-dihydropyrrolo[3,4-c]pyrazol-6(2H)-one], the IC50 in test [1] stood at 23000 nM; in test [2], 30000 nM; in test [3], 27000 nM. The IC (total growth inhibition) in test [4] is 4.04 µM; in test [5] it was above 10 µM; in test [6], above 10 µM.
For the compound `Cc1cc(N2C(=O)c3nn(C4CC4)c(C)c3[C@H]2c2ccc(Cl)cc2)cn(C)c1=O` [Example 21], the half-inhibitory concentration (IC50) was determined as 47 nM in test [1], 48 nM in test [2] and 43 nM in test [3]. In addition, the IC (total growth inhibition) was 0.0378 µM in test [4], 0.0687 µM in test [5] and above 10 µM in test [6].
With `COc1ncc(-n2nc(C)c3c2C(=O)N(c2cc(Cl)c(=O)n(C)c2)C3c2ccc(Cl)cc2)c(OC)n1` (stereo not shown) [Example 53, 5-(5-chloro-1-methyl-6-oxo-1,6-dihydropyridin-3-yl)-4-(4-chlorophenyl)-1-(2,4-dimethoxypyrimidin-5-yl)-3-methyl-4,5-dihydropyrrolo[3,4-c]pyrazol-6(1H)-one], the figures for the IC50 in test [1], in test [2] and in test [3] were 130 nM, 98 nM and 120 nM, respectively. Besides, the IC (total growth inhibition) in test [4] was 0.372 µM; in test [5] it was 0.685 µM; in test [6], above 10 µM.
For the compound `COc1ncc(-n2nc3c(c2C(C)C)[C@H](c2ccc(Cl)cc2)N(c2cc(C)c4onc(C)c4c2)C3=O)c(OC)n1` [Example 61, (S)-4-(4-chlorophenyl)-2-(2,4-dimethoxypyrimidin-5-yl)-5-(3,7-dimethylbenzo[d]isoxazol-5-yl)-3-isopropyl-4,5-dihydropyrrolo[3,4-c]pyrazol-6(2H)-one], the IC50 in test [1], in test [3] and in test [7] was above 37000 nM each time. The IC (total growth inhibition) is 1.09 µM in test [4], above 10 µM in test [5] and above 10 µM in test [6].
For `Cc1nn(C2CC2)c2c1C(c1ccc(Cl)cc1)N(c1cc(C)c3nnc(C)n3c1)C2=O` (stereo not shown) [Example 92, 4-(4-chlorophenyl)-1-cyclopropyl-5-(3,8-dimethyl-[1,2,4]triazolo[4,3-a]pyridin-6-yl)-3-methyl-4,5-dihydropyrrolo[3,4-c]pyrazol-6(1H)-one], the IC50 in test [3] stood at 27 nM; in test [7], 14900 nM. Further, the IC (total growth inhibition) is 0.0175 µM in test [4], 0.0395 µM in test [5] and above 10 µM in test [6].
Regarding `Cc1nn(C2CC2)c2c1[C@@H](c1ccc(Cl)cc1)N(c1cc(C)c3nnc(C)n3c1)C2=O` [Example 119, (R)-4-(4-chlorophenyl)-1-cyclopropyl-5-(3,8-dimethyl-[1,2,4]triazolo[4,3-a]pyridin-6-yl)-3-methyl-4,5-dihydropyrrolo[3,4-c]pyrazol-6(1H)-one], the IC50 in test [3] was found to be 17 nM; in test [7], 8900 nM. Further, the IC (total growth inhibition) in test [4] is 0.0116 µM; in test [5], 0.0226 µM; in test [6], above 10 µM.
With `Cc1cc(N2C(=O)c3c(c(CF)nn3C3CC3)C2c2ccc(Cl)cc2)cn2c(C)nnc12` (stereo not shown) [Example 159, 4-(4-chlorophenyl)-1-cyclopropyl-5-(3,8-dimethyl-[1,2,4]triazolo[4,3-a]pyridin-6-yl)-3-(fluoromethyl)-4,5-dihydropyrrolo[3,4-c]pyrazol-6(1H)-one], the results for the IC50 in test [1], in test [3] and in test [7] were 46 nM, 50 nM and 6600 nM, respectively. Besides, the IC (total growth inhibition) in test [4] is 0.0812 µM; in test [5], 0.0855 µM; in test [6] it was above 10 µM.
Take `COCc1nn(C2CC2)c2c1[C@@H](c1ccc(Cl)cc1)N(c1cc(C)c3nnc(C)n3c1)C2=O` [Example 163, […]]: the results for the IC50 in test [1] and in test [7] were below 11 nM and 11000 nM, respectively. Besides, the results for the IC (total growth inhibition) in test [4], in test [5] and in test [6] were 0.022 µM, 0.0461 µM and above 10 µM, respectively.
In turn, `Cc1cc(N2C(=O)c3c(c(C4CC4)nn3C)[C@H]2c2ccc(Cl)cc2)cn2c(C)nnc12` [Example 164, (R)-4-(4-chlorophenyl)-3-cyclopropyl-5-(3,8-dimethyl-[1,2,4]triazolo[4,3-a]pyridin-6-yl)-1-methyl-4,5-dihydropyrrolo[3,4-c]pyrazol-6(1H)-one] yielded an IC50 in test [7] of 5100 nM. Further, the IC (total growth inhibition) was 0.0118 µM in test [4], 0.0173 µM in test [5] and above 10 µM in test [6].
